Test results published in ChEMBL document CHEMBL3414492, “Enhancing the cellular anti-proliferation activity of pyridazinones as c-met inhibitors using docking analysis” (Eur J Med Chem, 2015).
Active and inactive are the calls of the source. No cut-off for these calls is given here.

Columns and labels:
[1] = tested on: SNU-16; assay: Selectivity index, ratio of IC50 for human SNU16 cells to IC50 for human MKN45 cells; format: functional
[2] = target: Epidermal growth factor receptor (Homo sapiens, UniProt P00533, L858R/T790M); assay: Inhibition of EGFR T790M/L858R mutant (unknown origin); format: protein assay
[3] = target: Fibroblast growth factor receptor 1 (Homo sapiens, UniProt P11362); assay: Inhibition of FGFR1 (unknown origin)
[4] = target: T1, Hepatocyte growth factor receptor (Homo sapiens, UniProt P08581); assay: Inhibition of c-Met Y1234/1235 phosphorylation in human EBC1 cells at 11 nM to 100 nM incubated for 2 hrs by Western blot method; format: cell-based
[5] = target: ALK tyrosine kinase receptor (Homo sapiens, UniProt Q9UM73); assay: Inhibition of ALK (unknown origin)
[6] = tested on: NCI-H460; assay: Selectivity index, ratio of IC50 for human NCI-H460 cells to IC50 for human EBC1 cells; format: functional
[7] = Selectivity index, ratio of IC50 for human NCI-H520 cells to IC50 for human EBC1 cells; format: functional
[8] = tested on: SNU-5; assay: Selectivity index, ratio of IC50 for human NCI-H661 cells to IC50 for human SNU5 cells; format: functional
[9] = target: Tyrosine-protein kinase receptor TYRO3 (Homo sapiens, UniProt Q06418); assay: Inhibition of TYRO3 (unknown origin)
[10] = tested on: A549; assay: Inhibition of cell proliferation of human A549 cells after 72 hrs by SRB assay; format: functional, cell-based; details: A549, 72 h
[11] = target: Insulin-like growth factor 1 receptor (Homo sapiens, UniProt P08069); assay: Inhibition of IGF1R (unknown origin)
[12] = tested on: NCI-H358; assay: Inhibition of cell proliferation of human NCI-H358 cells after 72 hrs by SRB assay; format: functional, cell-based; details: NCI-H358, 72 h
[13] = Inhibition of cell proliferation of human EBC1 cells after 72 hrs by SRB assay; details: EBC-1, 72 h
[14] = target: Tyrosine-protein kinase receptor UFO (Homo sapiens, UniProt P30530); assay: Inhibition of AXL (unknown origin)
[15] = target: T1, Hepatocyte growth factor receptor; assay: Inhibition of c-Met in human EBC1 cells assessed as reduction in ERK T202/Y204 phosphorylation at 11 nM to 100 nM incubated for 2 hrs by Western blot method; format: cell-based
[16] = tested on: SNU-16; assay: Selectivity index, ratio of IC50 for human SNU16 cells to IC50 for human SNU5 cells; format: functional
[17] = Inhibition of cell proliferation of human MKN45 cells after 72 hrs by SRB assay; details: MKN-45, 72 h
[18] = tested on: SNU-16; assay: Selectivity index, ratio of IC50 for human SNU16 cells to IC50 for human EBC1 cells; format: functional
[19] = tested on: NCI-H460; assay: Selectivity index, ratio of IC50 for human NCI-H460 cells to IC50 for human MKN45 cells; format: functional
[20] = Inhibition of cell proliferation of human SNU5 cells after 72 hrs by SRB assay; details: SNU-5, 72 h
[21] = tested on: NCI-H358; assay: Selectivity index, ratio of IC50 for human NCI-H358 cells to IC50 for human EBC1 cells; format: functional
[22] = tested on: NCI-H358; assay: Selectivity index, ratio of IC50 for human NCI-H358 cells to IC50 for human SNU5 cells; format: functional
[23] = tested on: A549; assay: Selectivity index, ratio of IC50 for human A549 cells to IC50 for human EBC1 cells; format: functional
[24] = target: Epidermal growth factor receptor (Homo sapiens, UniProt P00533); assay: Inhibition of EGFR (unknown origin)
[25] = target: Macrophage-stimulating protein receptor (Homo sapiens, UniProt Q04912); assay: Inhibition of RON (unknown origin)
[26] = tested on: SNU-5; assay: Selectivity index, ratio of IC50 for human NCI-H520 cells to IC50 for human SNU5 cells; format: functional
[27] = tested on: NCI-H358; assay: Selectivity index, ratio of IC50 for human NCI-H358 cells to IC50 for human MKN45 cells; format: functional
[28] = target: Receptor tyrosine-protein kinase erbB-4 (Homo sapiens, UniProt Q15303); assay: Inhibition of ERBB4 (unknown origin)
[29] = Selectivity index, ratio of IC50 for human PC3 cells to IC50 for human EBC1 cells; format: functional
[30] = target: Ephrin type-A receptor 2 (Homo sapiens, UniProt P29317); assay: Inhibition of EPHA2 (unknown origin)
[31] = tested on: SNU-5; assay: Selectivity index, ratio of IC50 for human PC3 cells to IC50 for human SNU5 cells; format: functional
[32] = tested on: NCI-H520; assay: Inhibition of cell proliferation of human NCI-H520 cells after 72 hrs by SRB assay; format: functional, cell-based; details: NCI-H520, 72 h
[33] = tested on: NCI-H460; assay: Selectivity index, ratio of IC50 for human NCI-H460 cells to IC50 for human SNU5 cells; format: functional
[34] = Selectivity index, ratio of IC50 for human NCI-H661 cells to IC50 for human EBC1 cells; format: functional
[35] = target: T1, Hepatocyte growth factor receptor; assay: Inhibition of c-Met Y1234/1235 phosphorylation in human EBC1 cells at 0.1 uM incubated for 2 hrs by Western blot method; format: cell-based
[36] = target: Vascular endothelial growth factor receptor 1 (Homo sapiens, UniProt P17948); assay: Inhibition of FLT1 (unknown origin)
[37] = Inhibition of cell proliferation of human SNU16 cells after 72 hrs by SRB assay; format: functional, cell-based; details: SNU-16, 72 h
[38] = Inhibition of cell proliferation of human PC3 cells after 72 hrs by SRB assay; format: functional, cell-based; details: PC-3, 72 h
[39] = tested on: NCI-H460; assay: Inhibition of cell proliferation of human NCI-H460 cells after 72 hrs by SRB assay; format: functional, cell-based; details: NCI-H460, 72 h
[40] = tested on: NCI-H661; assay: Inhibition of cell proliferation of human NCI-H661 cells after 72 hrs by SRB assay; details: NCI-H661, 72 h
[41] = tested on: MKN-45; assay: Selectivity index, ratio of IC50 for human NCI-H661 cells to IC50 for human MKN45 cells; format: functional
[42] = target: T1, Hepatocyte growth factor receptor; assay: Inhibition of recombinant c-Met (unknown origin) using poly (Glu,Tyr)4:1 substrate incubated for 60 mins by ELISA method
[43] = tested on: A549; assay: Selectivity index, ratio of IC50 for human A549 cells to IC50 for human SNU5 cells; format: functional
[44] = target: T1, Hepatocyte growth factor receptor; assay: Inhibition of c-Met in human EBC1 cells assessed as reduction in Akt S473 phosphorylation at 11 nM to 100 nM incubated for 2 hrs by Western blot method; format: cell-based
[45] = tested on: A549; assay: Selectivity index, ratio of IC50 for human A549 cells to IC50 for human MKN45 cells; format: functional
[46] = target: Platelet-derived growth factor receptor beta (Homo sapiens, UniProt P09619); assay: Inhibition of PDGFRbeta (unknown origin)
[47] = tested on: MKN-45; assay: Selectivity index, ratio of IC50 for human NCI-H520 cells to IC50 for human MKN45 cells; format: functional
[48] = tested on: MKN-45; assay: Selectivity index, ratio of IC50 for human PC3 cells to IC50 for human MKN45 cells; format: functional

O=c1ccc(-n2ccc3ccc(F)cc32)nn1CCOc1ccnc2cc(OCCCN3CCOCC3)ccc12
Ratio IC50 [1]: > 100
IC50 [2]: > 1 µM
IC50 [3]: > 1 µM
inhibition [4]: Dose-dependent effect
IC50 [5]: > 1 µM
Ratio IC50 [6]: 100
Ratio IC50 [7]: 100
Ratio IC50 [8]: 100
IC50 [9]: > 1 µM
IC50 [10]: > 10 µM
IC50 [11]: > 1 µM
IC50 [12]: > 10 µM
IC50 [13]: 0.0172 µM
IC50 [14]: > 1 µM
inhibition [15]: Active
Ratio IC50 [16]: > 100
IC50 [17]: 60.7 µM
Ratio IC50 [18]: > 100
Ratio IC50 [19]: 100
IC50 [20]: 88.1 µM
Ratio IC50 [21]: 100
Ratio IC50 [22]: 100
Ratio IC50 [23]: 100
IC50 [24]: > 1 µM
IC50 [25]: > 1 µM
Ratio IC50 [26]: 100
Ratio IC50 [27]: 100
IC50 [28]: > 1 µM
Ratio IC50 [29]: 100
IC50 [30]: > 1 µM
Ratio IC50 [31]: > 100
IC50 [32]: > 10 µM
Ratio IC50 [33]: 100
Ratio IC50 [34]: 100
inhibition [35]: Active
IC50 [36]: > 1 µM
IC50 [37]: > 10 µM
IC50 [38]: > 10 µM
IC50 [39]: > 10 µM
IC50 [40]: > 10000 µM
Ratio IC50 [41]: 100
IC50 [42]: 0.0042 µM
Ratio IC50 [43]: 100
inhibition [44]: Active
Ratio IC50 [45]: 100
IC50 [46]: > 1 µM
Ratio IC50 [47]: 100
Ratio IC50 [48]: > 100
